Counter-ions that a name gives are not always drawn.
Assay: siRNA encapsulation in lipid nanoparticles (SYBR Gold)
Type: physicochemical
Settings: Table 2; FVII siRNA in LNP with the cationic lipid
Procedure: The lipid nanoparticles (LNPs) were formed by mixing equal volumes of lipids dissolved in alcohol with siRNA dissolved in a citrate buffer by an impinging jet process. The lipid solution contains a cationic lipid compound of the invention, a helper lipid (cholesterol), an optional neutral lipid (DSPC) and a PEG (PEG) lipid at a concentration of 8-16 mg/mL with a target of 12 mg/mL in an alcohol. The siRNA to total lipid ratio is approximately 0.05 (wt/wt). Where a LNP formulation contains four lipid components, the molar ratios of the lipids ranges from 20 to 70 mole percent for the cationic lipid with a target of 40-60, the mole percent of helper lipid ranges from 20 to 70 with a target of 30 to 50, the mole percent of neutral lipid ranges from 0-30, the mole percent of PEG lipid has a range from 1 to 6 with a target of 2 to 5. The concentration of siRNA solution ranges from 0.7 to 1.0 mg/mL with a target of 0.8 to 0.9 mg/mL in a sodium citrate: sodium chloride buffer pH 4-6, with a target of 4.5-5.5. The LNPs are formed by mixing equal volumes of lipid solution in ethanol with siRNA dissolved in a citrate buffer by an impinging jet process through a mixing device with ID ranging from 0.25 to 2.0 mm at a flow rate from 10 to 640 mL/min. The mixed LNP solution is held at room temperature for 0-24 hrs prior to a dilution step. The solution is then concentrated and diafiltered with suitable buffer by ultrafiltration or dialysis process using membranes with a MW cutoff from 30 to 500 KD. The final product is sterile filtered and stored at 4° C.
The lipid nanoparticles (LNPs) were formed by mixing equal volumes of lipids dissolved in alcohol with siRNA dissolved in a citrate buffer by an impinging jet process. The lipid solution contains a cationic lipid compound of the invention, a helper lipid (cholesterol), an optional neutral lipid (DSPC) and a stealth lipid (5010, S024, S027, or S031) at a concentration of 8-16 mg/mL with a target of 12 mg/mL in an alcohol. The siRNA to total lipid ratio is approximately 0.05 (wt/wt). Where a LNP formulation contains four lipid components, the molar ratios of the lipids ranges from 20 to 70 mole percent for the cationic lipid with a target of 40-60, the mole percent of helper lipid ranges from 20 to 70 with a target of 30 to 50, the mole percent of neutral lipid ranges from 0-30, the mole percent of PEG lipid has a range from 1 to 6 with a target of 2 to 5. The concentration of siRNA solution ranges from 0.7 to 1.0 mg/mL with a target of 0.8 to 0.9 mg/mL in a sodium citrate: sodium chloride buffer pH 4-6, with a target of 4.5-5.5. The LNPs are formed by mixing equal volumes of lipid solution in ethanol with siRNA dissolved in a citrate buffer by an impinging jet process through a mixing device with ID ranging from 0.25 to 2.0 mm at a flow rate from 10 to 640 mL/min. The mixed LNP solution is held at room temperature for 0-24 hrs prior to a dilution step. The solution is then concentrated and diafiltered with suitable buffer by ultrafiltration process using membranes with a MW cutoff from 30 to 500 KD. The final product is sterile filtered and stored at 4° C.
SYBR Gold flourescence reagent is used for the determination of siRNA encapsulation in the DLP's. DLP's with and without triton x-100 are used to determine the free siRNA and total siRNA amounts. DLP's samples with and without triton X-100 were excited at 485 nm and flourescence emission is measured at 530 nm. Encapsulation efficiency is calculated based on the following formula: Encapsulation efficiency:[([…])/(total siRNA concentration)]×100% Encapsulation Data

% encapsulation siRNA FVII [%] | Structure (SMILES)
89.3 | CCCCCCCCCCCCC(COC(=O)CCC(OCC(CC)CCCC)OCC(CC)CCCC)OC(=O)OCCCN(CC)CC (stereo not drawn) [Example 48, 2-(((3-(diethylamino)propoxy)carbonyl)oxy)tetradecyl 4,4-bis((2-ethylhexyl)oxy)butanoate]
88.4 | CCCCC/C=C\C/C=C\CCCCCCCCC(CCOC(=O)CCCCCCC/C=C\C/C=C\CCCCC)OC(=O)CCN(C)C (stereo not drawn) [Example 49, (9Z,12Z)-(12Z,15Z)-3-((3-(dimethylamino)propanoyl)oxy)henicosa-12,15-dien-1-yl octadeca-9,12-dienoate]
85.3 | CCCCC/C=C\C/C=C\CCCCCCCCC(CCOC(=O)CC(CCCCCCCC)CCCCCCCC)OC(=O)CCCN(C)C (stereo not drawn) [Example 50, (12Z,15Z)-3-((4-(dimethylamino)butanoyl)oxy)henicosa-12,15-dien-1-yl 3-octylundecanoate, formate salt]
89.2 | CCCCC/C=C\C/C=C\CCCCCCCCC(CCOC(=O)CCCC(CCCCCCC)CCCCCCC)OC(=O)CCCN(C)C (stereo not drawn) [Example 51, (12Z,15Z)-3-((4-(dimethylamino)butanoyl)oxy)henicosa-12,15-dien-1-yl 5-heptyldodecanoate]
84.6 | CCCCC/C=C\C/C=C\CCCCCCCCC(CCOC(=O)CCCCCC(CCCCCC)CCCCCC)OC(=O)CCCN(C)C (stereo not drawn) [Example 52, (12Z,15Z)-3-((4-(dimethylamino)butanoyl)oxy)henicosa-12,15-dien-1-yl 7-hexyltridecanoate]
85.6 | CCCCC/C=C\C/C=C\CCCCCCCCC(CCOC(=O)CCCCCCCC(CCCCC)CCCCC)OC(=O)CCCN(C)C (stereo not drawn) [Example 53, (12Z,15Z)-3-((4-(dimethylamino)butanoyl)oxy)henicosa-12,15-dien-1-yl 9-pentyltetradecanoate]
88.6 | CCCCC/C=C\C/C=C\CCCCCCCCOC(=O)OCCC(CCCCCCCC/C=C\C/C=C\CCCCC)OC(=O)CCN(C)C (stereo not drawn) [Example 54, (12Z,15Z)-1-((((9Z,12Z)-octadeca-9,12-dien-1-yloxy)carbonyl)oxy)henicosa-12,15-dien-3-yl 3-(dimethylamino)propanoate]
90.2 | CCCCC/C=C\C/C=C\CCCCCCCCC(COCCOC(=O)CCCCCCC/C=C\C/C=C\CCCCC)OC(=O)CCN(C)C (stereo not drawn) [Example 59, (9Z,12Z)-2-(((11Z,14Z)-2-((3-(dimethylamino)propanoyl)oxy)icosa-11,14-dien-1-yl)oxy)ethyl octadeca-9,12-dienoate]
82.4 | CCCCC/C=C\C/C=C\CCCCCCCC(=O)OCCC(CCCCCCCCCCOC(=O)CCCCCCC)OC(=O)OCCCN(C)C (stereo not drawn) [Example 60, (9Z,12Z)-3-(((3-(dimethylamino)propoxy)carbonyl)oxy)-13-(octanoyloxy)tridecyl octadeca-9,12-dienoate]
85.5 | CCCCCCCCC(CCCCCCCC)CC(=O)OCCC(CCCCCCCCCCOC(=O)CCCCCCC)OC(=O)OCCCN(C)C (stereo not drawn) [Example 61, 3-(((3-(dimethylamino)propoxy)carbonyl)oxy)-13-(octanoyloxy)tridecyl 3-octylundecanoate]
75.2 | CCCCCCCC(CCCCCCC)CCCC(=O)OCCC(CCCCCCCCCCO)OC(=O)OCCCN(C)C (stereo not drawn) [Example 62, 3-(((3-(dimethylamino)propoxy)carbonyl)oxy)-13-hydroxytridecyl 5-heptyldodecanoate]
85.6 | CCCCCCCC(=O)OCCCCCCCCCCC(CCOC(=O)CCCC(CCCCCCC)CCCCCCC)OC(=O)OCCCN(C)C (stereo not drawn) [Example 63, 3-(((3-(dimethylamino)propoxy)carbonyl)oxy)-13-(octanoyloxy)tridecyl 5-heptyldodecanoate]
39.5 | CCCCCC(CCCCC)CCCCCCCC(=O)OCCC(CCCCCCCCCCO)OC(=O)OCCCN(C)C (stereo not drawn) [Example 65, 3-(((3-(dimethylamino)propoxy)carbonyl)oxy)-13-hydroxytridecyl 9-pentyltetradecanoate]
83.4 | CCCCCCCC(=O)OCCCCCCCCCCC(CCOC(=O)CCCCCCCC(CCCCC)CCCCC)OC(=O)OCCCN(C)C (stereo not drawn) [Example 66, 3-(((3-(dimethylamino)propoxy)carbonyl)oxy)-13-(octanoyloxy)tridecyl 9-pentyltetradecanoate]
86.7 | CCCCCCCCC(CCCCCCCC)CC(CCCCOC(=O)CCCCCCC)OC(=O)OCCCN(C)C (stereo not drawn) [Example 71, 5-(((3-(dimethylamino)propoxy)carbonyl)oxy)-7-octylpentadecyl octanoate]
62.5 | CCCCC/C=C\C/C=C\CCCCCCCC(=O)OCCCCC(CC(CCCCCCCC)CCCCCCCC)OC(=O)OCCCN(C)C (stereo not drawn) [Example 72, (9Z,12Z)-5-(((3-(dimethylamino)propoxy)carbonyl)oxy)-7-octylpentadecyl octadeca-9,12-dienoate]
48.8 | CCCCC/C=C\C/C=C\CCCCCCCC(=O)OCC(COC(=O)CCCCCCC/C=C\C/C=C\CCCCC)OC(=O)CCC(CCCCCCCCCCCC)OC(=O)OCCCN(CC)CC (stereo not drawn) [Example 81, (9Z,9′Z,12Z,12′Z)-2-((4-(((3-(diethylamino)propoxy)carbonyl)oxy)hexadecanoyl)oxy)propane-1,3-diyl bis(octadeca-9,12-dienoate)]
85.7 | CCCCCCCCCCCCCC(=O)OCC(COC(=O)CCCCCCCCCCCCC)OC(=O)CCC(CCCCCCCCCCCC)OC(=O)OCCCN(C)C (stereo not drawn) [Example 85, 2-((4-(((3-(dimethylamino)propoxy)carbonyl)oxy)hexadecanoyl)oxy)propane-1,3-diyl ditetradecanoate]
77.5 | CCCCCCCCCCCCC(CCC(=O)OC(COC(=O)CCCCCCCCCCC)COC(=O)CCCCCCCCCCC)OC(=O)OCCCN(C)C (stereo not drawn) [Example 87, 2-((4-(((3-(dimethylamino)propoxy)carbonyl)oxy)hexadecanoyl)oxy)propane-1,3-diyl didodecanoate]
91.4 | CCCCCCCCCCCCC(CCC(=O)OC(COC(=O)CCCCCCCCC)COC(=O)CCCCCCCCC)OC(=O)OCCCN(CC)CC (stereo not drawn) [Example 90, 2-((4-(((3-(diethylamino)propoxy)carbonyl)oxy)hexadecanoyl)oxy)propane-1,3-diyl bis(decanoate)]
86.9 | CCCCC/C=C\C/C=C\CCCCCCCCC(CCC(=O)OC(COC(=O)CCCCCCC)COC(=O)CCCCCCC)OC(=O)OCCCN(CC)CC (stereo not drawn) [Example 95, 2-(((13Z,16Z)-4-(((3-(diethylamino)propoxy)carbonyl)oxy)docosa-13,16-dienoyl)oxy)propane-1,3-diyl dioctanoate]
